The values that follow come from patent US6444812B1, “Intermediate compounds in the preparation of farnnesyl transferase inhibiting 1,8-annelated quinolinone derivatives substituted with N-or C linked imidazoles” (Janssen Pharmaceutica N.V., priority 1997, dated 2002).

Data set [1] relates to NIH 3T3 cells transformed by the T24 activated human H-ras gene. In words: Ras-Transformed Cell Phenotype Reversion Assay. The format is cell-based, mouse. The settings on record: cell counts after 72 hours proliferation. From the text:
“Ras-Transformed Cell Phenotype Reversion Assay”
Insertion of activated oncogenes such as the mutant ras gene into mouse NIH 3T3 cells converts the cells to a transformed phenotype. The cells become tumorigenic, display anchorage independent growth in semi-solid medium and lose contact inhibition. Loss of contact inhibition produces cell cultures which no longer form uniform monolayers. Rather, the cells pile up into multicellular nodules and grow to very high saturation densities in plastic tissue culture dishes. Agents such as protein farnesyl transferase inhibitors which revert the ras transformed phenotype restore the uniform monolayer growth pattern to cells in culture. This reversion is easily monitored by counting the number of cells in tissue culture plates. Transformed cells will achieve higher cell numbers than cells which have reverted to an untransformed phenotype. Compounds which revert the transformed phenotype should produce antitumor effects in tumors bearing ras gene mutations.
Compounds are screened in tissue culture in NIH 3T3 cells transformed by the T24 activated human H-ras gene. Cells are seeded at an initial density of 200,000 cells per well (9.6 cm^2 surface area) in six-well cluster tissue culture plates. Test compounds are immediately added to 3.0 ml cell growth medium in a 3.0 μl volume of DMSO, with a final concentration of DMSO in the cell growth medium of 0.1%. The test compounds are run at concentrations of 5, 10, 50, 100, and 500 nM along with a DMSO treated vehicle control. […] Then the cells are detached in 1.0 ml trypsin-EDTA cell dissociation medium and counted on a Coulter particle counter.
Cell numbers expressed as cells per well are measured using a Coulter Particle Counter.
All cell counts were corrected for the initial cell input density by subtracting 200,000.
Control cell counts=[cell counts from cells incubated with DMSO vehicle−200,000]
Test compound cell counts=[cell counts from cells incubated with test compound−200,000]. [formula]

The test system of data set [2] is T24 activated human H-ras gene transformed NIH 3T3 fibroblast cells (T24 cells). Nature of the data set: Farnesyl Protein Transferase Inhibitor Secondary Tumor Model. The format is in vivo, Nude mice. As to conditions: po, 15 days of treatment. From the text: “Farnesyl Protein Transferase Inhibitor Secondary Tumor Model”
The enzyme farnesyl protein transferase catalyzes the covalent attachment of a farnesyl moiety derived from farnesyl pyrophosphate to the oncogene product p21^ras. This directs p21^ras to attach to plasma membranes. Once attached to plasma membranes, mutant or oncogenic forms of p21^ras will provide a signal for the transformation and uncontrolled growth of malignant tumor cells. Therefore, inhibitors of protein farnesyltransferase will prevent the membrane attachment of p21^ras and inhibit growth of ras-transformed tumors.
Nude mice are inoculated with 1×10^6 of T24 activated human H-ras gene transformed NIH 3T3 fibroblast cells (T24 cells), subcutaneously in the inguinal region. After three days to allow tumors to become established, treatment with test compounds is begun via the oral route. The test compounds are dissolved in a 20% β-cyclodextrin in 0.1 N HCl solution and administered orally as 0.1 ml of compound solution per 10 g mouse body weight. Routinely used doses are 6.25, 12.5 and 25 mg/kg. Body weights and tumor sizes are monitored during the ensuing 15 days of treatment. At the end of treatment, animals are sacrificed and tumors are weighed.
The “mean vehicle treated tumor weight” is defined as the mean tumor weight from 10 to 15 mice […].
The “mean tumor weight” is defined as the mean tumor weight from 10 to 15 mice […]. [formula]

Data set [3] has as its target T1, Human farnesyl protein transferase (Homo sapiens, UniProt P49354+P49356).
T1 construct: grown as monolayer cell cultures were used as a source of human enzyme; endogenous in cells; host or cells: KHOS (Kirsten virus transformed human osteosarcoma) cells from ATCC, grown as solid tumors in nude mice or as monolayer cultures; The enzyme was partially purified by a 30-50% ammonium sulfate cut and Q Fast Flow Sepharose
In words: In Vitro Assay for Inhibition of Farnesyl Protein Transferase (scintillation proximity assay). It counts as biochemical. As to conditions: concentration of test compound producing 50% inhibition of enzyme activity; 60 min at 37° C. As for the experimental part:
“In Vitro Assay for Inhibition of Farnesyl Protein Transferase”
Human farnesyl protein transferase was prepared essentially as described (Y. Reiss et al., Methods: A Companion to Methods in Enzymology, vol. 1, 241-245, 1990). Kirsten virus transformed human osteosarcoma (KHOS) cells (American Type Culture Collection, Rockville, Md., USA) grown as solid tumors in nude mice or grown as monolayer cell cultures were used as a source of human enzyme. Briefly, cells or tumors were homogenized in buffer containing 50 mM Tris, 1 mM EDTA, 1 mM EGTA and 0.2 mM phenylmethylsulfonylfluoride (pH 7.5). The homogenates were centrifuged 28,000×g for 60 min and the supernatants collected. […] Fractions containing 4 to 5 ml volumes of column eluate were collected and analyzed for farnesyl protein transferase activity. […]
The activity of farnesyl protein transferase was measured using the Farnesyl Transferase [^3H] […] The amount of [^3H]-farnesyl-(Cys)-biotin lamin B peptide synthesized in the presence or absence of test compounds was quantified as cpm by counting on a Wallac Model 1480 Microbeta Liquid Scintillation Counter. […] The protein farnesyl transferase activity observed in the presence of test compound was normalized to farnesyl transferase activity in the presence of 10% DMSO and expressed as percent inhibition. […]
(Scintillation proximity formats need no separation of bound from free tracer.)

A word on the melting point: it is the temperature of the solid-liquid transition. Usually IC50 stands for the midpoint of a concentration-inhibition curve. Read a high IC50 as a need for much substance.

`Cn1cncc1C(c1ccc(Cl)cc1)c1cc2c3c(c1)c(-c1cccc(Cl)c1)cc(=O)n3CC2.O` (racemic) (hydrate or solvate) [Compound 6, (±)-6-(3-chlorophenyl)-8-[(4-chlorophenyl)(1-methyl-1H-imidazol-5-yl)methyl]-1,2-dihydro-4H-pyrrolo[3,2,1-ij]quinolin-4-one monohydrate]: the melting point is 147 °C. Consider `Cn1cncc1C(O)(c1ccc(Cl)cc1)c1cc2c3c(c1)c(-c1cccc(Cl)c1)cc(=O)n3CC2` (racemic) [Compound 5, (±)-6-(3-chlorophenyl)-8-[(4-chlorophenyl)hydroxy(1-methyl-1H-imidazol-5-yl)methyl]-1,2-dihydro-4H-pyrrolo[3,2,1-ij]quinolin-4-one], for which the melting point is 213.6 °C. In addition, in data set [1] (NIH3T3), the IC50 worked out at 0.0078 µM.

For the molecule `Cn1cncc1C(c1ccc(Cl)cc1)c1cc2c3c(c1)c(-c1cccc(Cl)c1)cc(=O)n3CC2` (racemic) [Compound 6, (±)-6-(3-chlorophenyl)-8-[(4-chlorophenyl)(1-methyl-1H-imidazol-5-yl)methyl]-1,2-dihydro-4H-pyrrolo[3,2,1-ij]quinolin-4-one monohydrate], it took 0.032 µM to reach half-maximal inhibition in data set [1] (NIH3T3) (IC50). Regarding `Cn1cncc1C(N)(c1ccc(Cl)cc1)c1cc2c3c(c1)c(-c1cccc(Cl)c1)cc(=O)n3CC2` (racemic) [Compound 8, (±)-8-[amino(4-chlorophenyl)(1-methyl-1H-imidazol-5-yl)methyl]-6-(3-chlorophenyl)-1,2-dihydro-4H-pyrrolo[3,2,1-ij]quinolin-4-one], the “% reduction final tumor weight” value in data set [2] (6.25 mg/kg bid) is given as 41%; in data set [2] (12.25 mg/kg bid), 44%; in data set [2] (25 mg/kg bid) it was 49%. For the same molecule, the half-maximal inhibitory concentration (IC50) in data set [1] (NIH3T3) was 0.0064 µM.

Turning to `Cn1cncc1C(O)(c1ccc(Cl)cc1)c1cc2c3c(c1)c(-c1cccc(Cl)c1)cc(=O)n3CO2` (racemic) [Compound 15, (±)-6-(3-chlorophenyl)-8-[(4-chlorophenyl)hydroxy(1-methyl-1H-imidazol-5-yl)methyl]-2H,4H-oxazolo[5,4,3-ij]quinolin-4-one], the IC50 in data set [1] (NIH3T3) was 0.048 µM. Same read-out and setting: the result for `Cn1cncc1C(c1ccc(Cl)cc1)c1cc2c3c(c1)c(-c1cccc(Cl)c1)cc(=S)n3CC2` (racemic) [Compound 27, (±)-6-(3-chlorophenyl)-8-[(4-chlorophenyl)(1-methyl-1H-imidazol-5-yl)methyl]-1,2-dihydro-4H-pyrrolo[3,2,1-ij]quinoline-4-thione] reads 0.0371 µM. For the molecule `Cc1nc2cc(C(O)(c3ccc(Cl)cc3)c3cncn3C)cc3c(-c4cccc(Cl)c4)cc(=O)n1c23` (racemic) [Compound 30, (±)-6-(3-chlorophenyl)-8-[(4-chlorophenyl)hydroxy(1-methyl-1H-imidazol-5-yl)methyl]-2-methyl-4H-imidazo[4,5,1-ij]quinolin-4-one], the melting point came out at 170 °C. In data set [1] (NIH3T3), the IC50 was found to be 0.373 µM.

Regarding `Cn1cncc1C(O)(c1ccc(Cl)cc1)c1cc2nc(-c3ccccc3)n3c(=O)cc(-c4cccc(Cl)c4)c(c1)c23` (racemic) [Compound 31, (±)-6-(3-chlorophenyl)-8-[(4-chlorophenyl)hydroxy(1-methyl-1H-imidazol-5-yl)methyl]-2-phenyl-4H-imidazo[4,5,1-ij]quinolin-4-one], the concentration for half-maximal inhibition (IC50) in data set [1] (NIH3T3) is above 0.5 µM. In data set [1], `Cn1cncc1C(O)(c1ccc(Cl)cc1)c1cc2[nH]c(=O)n3c(=O)cc(-c4cccc(Cl)c4)c(c1)c23` (racemic) [Compound 34, (±)-6-(3-chlorophenyl)-8-[(4-chlorophenyl)hydroxy(1-methyl-1H-imidzol-5-yl)methyl]-4H-imidazo[4,5,1-ij]quinoline-2,4(1H)-dione] registered an IC50 above 0.5 µM. The molecule `Cn1cncc1C(O)(c1ccc(Cl)cc1)c1cc2nnn3c(=O)cc(-c4cccc(Cl)c4)c(c1)c23` (racemic) [Compound 35, (±)-6-(3-chlorophenyl)-8-[(4-chlorophenyl)hydroxy(1-methyl-1H-imidazol-5-yl)methyl]-4H-1,2,3-triazolo[4,5,1-ij]quinolin-4-one] showed a melting point of 226 °C. Further, in data set [1] (NIH3T3), the half-inhibitory concentration (IC50) was above 0.5 µM.

Regarding `O=c1cc(-c2cccc(Cl)c2)c2cc(C(c3ccc(Cl)cc3)n3ccnc3)cc3c2n1CCC3` (racemic) [Compound 36, (±)-7-(3-chlorophenyl)-9-[(4-chlorophenyl)-1H-imidazol-1-ylmethyl]-2,3-dihydro-1H,5H-benzo[ij]quinolizin-5-one], in data set [3], the midpoint of inhibition, the IC50, lay at 0.021 µM. Take `O=C1CC(c2cccc(Cl)c2)c2cc(C(c3ccc(Cl)cc3)n3ccnc3)cc3c2N1CCC3` (racemic) [Compound 37, (±)-7-(3-chlorophenyl)-9-[(4-chlorophenyl)-1H-imidazol-1-ylmethyl]-2,3,6,7-tetrahydro-1H,5H-benzo[ij]quinolizin-5-one]: the melting point came out at 93.6 °C.

Turning to `Cn1cncc1C(N)(c1ccc(Cl)cc1)c1cc2c3c(c1)c(-c1cccc(Cl)c1)cc(=O)n3CC2` (centres unmarked) [Compound 10, (B)-8-[amino(4-chlorophenyl)(1-methyl-1H-imidazol-5-yl)methyl]-6-(3-chlorophenyl)-1,2-dihydro-4H-pyrrolo[3,2,1-ij]quinolin-4-on], half-maximal inhibition in data set [1] (IC50) was put at 0.0032 µM. In data set [3], `O=c1cc(-c2cccc(Cl)c2)c2cc(C(c3ccc(Cl)cc3)n3ccnc3)cc3c2n1CC3` (centres unmarked) [Compound 38] registered an IC50 of 0.015 µM.
